Source: patent US20080063642A1, “Methods of using (+)-1,4-dihydro-7-[(3S,4S)-3-methoxy-4-(methylamino)-1-pyrrolidinyl]-4-oxo-1-(2-thiazolyl)-1,8-naphthyridine-3-carboxylic acid for treatment of certain hematologic disorders” (priority 2006, published 2008)
Values after ≈ are worked out from the molar mass of the structure shown. Like-named read-outs stand apart in the source and are kept apart here. Marks after values point to notes of the source that are not given here.

Assays:
[1] = system: LM3-Jck human malignant lymphoma tumor; assay: LM3-Jck xenograft model; format: in vivo; conditions: for IR (%) tumor inhibition rate: LM3-JcK, 21 days after start
Method: LM3-Jck human malignant lymphoma tumor lobes (2-3 mm square) were transplanted subcutaneously into nude mice. Tumors were allowed to grow to approximately 7-14 mm in diameter. […] Acceptable toxicity was defined as a mean group weight loss of 30% or less and not more than one toxic death among 6 treated animals. Anti-tumor activities of the drugs were assessed 21 days after the start of administration.

[2] = system: CCRF-CEM (lymphoblastic leukemia); assay: MTT cell viability assay, CCRF-CEM; format: cell-based; conditions: Homo sapiens, MTT after 72 hours
Method: (§1) The following cell lines were used in this assay: HL-60 (promyelocytic leukemia); Jurkat (T cell leukemia); CCRF-CEM (lymphoblastic leukemia); CEM/C2 (camptothecan resistant derivative of CCRF-CEM).
(§2) Cells were seeded in 96 wells plates at 3000 cells per well and incubated for 16 hours. Compound dilutions were performed in DMSO from 10 mM with 3 fold dilutions. Titrations were diluted 1:100 in media to achieve final compound concentrations. The 96 well plates were aspirated and compound dilutions in media were added ([…]). MTT analysis was carried out after 72 hours of incubation at 37° C. Briefly, […] of MTT solution was added to each well. Cells were incubated at 37° C. for 1-2 hours. Cells were lysed with the addition of […] cell lysis buffer and MTT was solubilized overnight at 37° C. Plates were read on a spectromax machine with an absorbance measurement at […]. IC50's were calculated (data provided in Table 1) using regression analysis within GraphPad Prism.

bone marrow [3] = assay: Bone marrow/cytology assay (Example 4): bone marrow cellularity; format: in vivo, Female CD-1 mice
Method: (§3) Blood was drawn on days 6, 8, and 12 post initial injection for hematological analysis. Femurs were extracted on day 6 fixed in Streck and H&E stained prior to bone marrow cellularity analysis. […] At 20 mg/kg, cellularity was reduced to 7.5%, while circulating neutrophils were reduced from a pre-dose level of […] to a nadir of 51±24 cells/mL blood on day 8. Absolute neutrophil counts subsequently rebounded and soon returned to normal levels. Total WBCs also reached a nadir on day 8, but returned to normal levels.

femoral bone marrow = assay: Combination dosing SNS-595 and Ara-C (Example 5): femoral bone marrow cellularity; format: in vivo, nu/nu mice
Text: Femurs were harvested for histological evaluation. The femur was placed in Streck fixative, paraffin embedded, sectioned, transferred to slides, and H&E stained (at BioPathology Sciences). Immunohistochemical slides were processed and analyzed for percent cellularity of intact bone marrow.

Jurkat (T cell leukemia) = assay: MTT cell viability assay, Jurkat; format: cell-based; conditions: Homo sapiens, MTT after 72 hours
Method: as §1, §2

[4] = CD-1 mouse model; q4d × 2
[5] = system: myeloid cell lineages in bone marrow; assay: Monotherapy and combination with Ara-C (Example 6): bone marrow smears, differential counts; format: in vivo, Female CD-1 mice; conditions: SNS-595 treated animals; Day 6
Method: Combination: […] Blood was analyzed at Quality Control Labs (Mountain View, Calif.) for complete blood count and differential count. Bone marrow smears from femurs on Day 6 and Day 12 were prepared and geimsa stained for differential counts. Femurs were also placed in Streck fixative, processed, sectioned and H&E stained. Femur and bone marrow smears were analyzed at BioPathology Sciences (South San Francisco, Calif.) for total cellularity and differential count.

[6] = system: circulating neutrophils, WBCs, platelets; set-up: species or system Female CD-1 mice; conditions: mouse, in vivo
Method: as §3

[7] = system: CCRF-CEM acute lymphoblastic leukemia tumor; assay: CCRF-CEM xenograft model; format: in vivo; conditions: CCRF-CEM; 25 mg/kg q7d × 3, IV; 20 or 21 days after start
Method: CCRF-CEM acute lymphoblastic leukemia tumor lobes of 2-3 mm square were transplanted subcutaneously into nude mice. Tumors were allowed to grow to approximately 8-20 mm in diameter. […] Acceptable toxicity was defined as a mean group weight loss of 30% or less and not more than one toxic death among 6 treated animals. Anti-tumor activities of the drugs were assessed 20 or 21 days after the start of administration. FIGS. 1-2 and Table 2 provides data for tumor inhibition rate (IR) and survival ratio in the CCRF-CEM and LM3-Jck xenograft models.

[8] = system: CEM/C2 (camptothecan resistant derivative of CCRF-CEM); assay: MTT cell viability assay, CEM/C2; format: cell-based; conditions: Homo sapiens, MTT after 72 hours
Method: as §1, §2

[9] = system: peripheral neutrophils, white blood cells, platelets; assay: Combination dosing SNS-595 and Ara-C (Example 5): peripheral cytology; format: in vivo, nu/nu mice; conditions: mouse, in vivo
Method: At various time points described in Table 5, mice were euthanized by CO2 asphyxiation in accordance to Institutional Animal Care and Use Committee (IACUC) guidelines. Blood was collected through cardiac tap and transferred to EDTA tubes. The analysis of murine blood CBC and differential counts for samples in these tubes was conducted (at Quality Clinical Labs, Moutainview). Statistical significance was determined by one-tailed student t-test, using Welch's correction for unequal variances.

[10] = mouse, in vivo, iv
Method: The effects of dosing were studied on changes in body weight, peripheral cytology, and femoral bone marrow cellularity over time as described below.
Before beginning the study, all animals were allowed to acclimatize for 3 days from shipping related stress and the health of the mice was assessed daily by observation. Purified water (reverse osmosis) and irradiated food (PicoLab Rodent Diet 20, #5053; Dean's Animal Feeds, San Carlos, Calif.) were provided ad libitum, and the animals were kept on a 12 hour light and dark cycle.

bone marrow [11] = assay: Monotherapy and combination with Ara-C (Example 6): bone marrow total cellularity; format: in vivo, Female CD-1 mice
Method: Blood was analyzed at Quality Control Labs (Mountain View, Calif.) for complete blood count and differential count. Bone marrow smears from femurs on Day 6 and Day 12 were prepared and geimsa stained for differential counts. Femurs were also placed in Streck fixative, processed, sectioned and H&E stained. Femur and bone marrow smears were analyzed at BioPathology Sciences (South San Francisco, Calif.) for total cellularity and differential count. […] The compounds were administered on Day 0 and Day 4.

[12] = Bone marrow/cytology assay (Example 4): body weight loss; format: in vivo, Female CD-1 mice; conditions: all dose groups, 5-20 mg/kg
Method: as §3
FIGS. 5 and 6 show neutrophil and total white blood cell counts from blood samples on day 8 post initial injection. […] Body weight loss was tolerable across all dose groups.

[13] = system: HL-60 (promyelocytic leukemia); assay: MTT cell viability assay, HL-60; format: cell-based; conditions: Homo sapiens, MTT after 72 hours
Method: as §1, §2

[14] = Group 4: SNS-595 15 mg/kg IV q4d × 2

**Q.** Which results are given for CN[C@H]1CN(c2ccc3c(=O)c(C(=O)O)cn(-c4nccs4)c3n2)C[C@@H]1OC [SNS-595, (+)-1,4-dihydro-7-[(3S,4S)-3-methoxy-4-(methylamino)-1-pyrrolidinyl]-4-oxo-1-(2-thiazolyl)-1,8-naphthyridine-3-carboxylic acid]?
**A.** IR (%) tumor inhibition rate ([1]; 20 mg/kg q7d × 3, IV): 98.9* %; IR (%) tumor inhibition rate ([1]; 25 mg/kg q7d × 3, IV): 98.5* %; antitumor activity ([1]; LM-3 Jck malignant lymphoma, 20 and 25 mg/kg): complete tumor regressions; IC50 [2]: 0.018 µg/mL (≈ 0.0448 µM); bone marrow cellularity (bone marrow [3]; 20 mg/kg IV Day 0 and Day 4, femurs day 6): 7.5%; bone marrow at 12 days post initial injection (bone marrow [3]; 20 mg/kg, day 12): bone marrow rebound; bone marrow cellularity, dose response (bone marrow [3]; 5, 10, 15, 20 mg/kg IV Day 0 and Day 4, two days after second administration): dose-dependent reduction in cellularity; total cellularity, femur cross section of representative animal (femoral bone marrow; Day 6, SNS-595 5 mg/kg q4d ×2 IV, Animal #23): 60%; total cellularity, femur cross section of representative animal (femoral bone marrow; Day 6, SNS-595 10 mg/kg q4d ×2 IV, Animal #44): 50%; total cellularity, femur cross section of representative animal (femoral bone marrow; Day 6, SNS-595 15 mg/kg q4d ×2 IV, Animal #63): 20%; total cellularity, femur cross section of representative animal (femoral bone marrow; Day 12, SNS-595 15 mg/kg q4d ×2 IV, Animal #73): 100%; Average Total Cellularity Day 6 (femoral bone marrow; Group 2: SNS-595 5 mg/kg IV q4d × 2): 70%; Average Total Cellularity Day 6 (femoral bone marrow; Group 3: SNS-595 10 mg/kg IV q4d × 2): 56%; Average Total Cellularity Day 6 (femoral bone marrow; [14]): 26%; Average Total Cellularity Day 12 (femoral bone marrow; [14]): 100%; reduction in cellularity (femoral bone marrow; SNS-595 10 mg/kg IV single agent): 44%; bone marrow cellularity, dose response (femoral bone marrow; SNS-595 single agent 5, 10, 15 mg/kg): dose-dependent reduction in bone marrow cellularity; IC50 (Jurkat (T cell leukemia)): 0.023 µg/mL (≈ 0.0573 µM); maximum tolerated dose (MTD) [4]: SNS-595 20 mg/kg q4d × 2*; immature neutrophils in bone marrow smears [5]: significant increase; platelet response [6]: minor platelet response; day of total WBC nadir ([6]; iv): 8 days; IR (%) tumor inhibition rate [7]: 98.1* %; IC50 [8]: 0.01 µg/mL (≈ 0.0249 µM); circulating white blood cells, dose response [9]: dose-dependent reduction; day by which neutrophils returned to normal levels [9]: ≤ 12 days; day by which platelets returned to normal levels [9]: ≤ 12 days; number of neutrophils versus vehicle group [9]: significantly lower than the vehicle group; recovery of white blood cells [9]: failed to return to normal levels by day 18; number of platelets versus vehicle group ([9]; 5 mg/kg): not significantly decrease; number of circulating white blood cells versus vehicle group ([9]; 10 mg/kg): significantly lower than the vehicle group; number of white blood cells versus vehicle group ([9]; 15 mg/kg): significantly lower than the vehicle group; % of Body Wt Nadir ([10]; 5 mg/kg): 0%; Day of Body Wt Nadir ([10]; 5 mg/kg): 0 days; % of Body Wt Nadir ([10]; 10 mg/kg): 0%; Day of Body Wt Nadir ([10]; 10 mg/kg): 0 days; % of Body Wt Nadir ([10]; 15 mg/kg): −2.8%; Day of Body Wt Nadir ([10]; 15 mg/kg): 7 days; Total Cellularity (Avg) Exp #2 (bone marrow [11]; SNS-595 10 mg/kg q4d × 2): 54%; Total Cellularity (Avg) Exp #1 (bone marrow [11]; SNS-595 10 mg/kg q4d × 2, two days after completion of treatment, 10 mg/kg): 56%; Total Cellularity (Avg) Exp #2 (bone marrow [11]; SNS-595 20 mg/kg q4d × 2): 18%; body weight loss [12]: tolerable; IC50 [13]: 0.053 µg/mL (≈ 0.132 µM)
